According to BindingDB's records for doi:10.1021/jm980094b (National Institute of Diabetes, 1998):

Molecular target: Adenosine receptor A2a (Rattus norvegicus, UniProt P30543)
Assay: Binding affinity was determined in radioligand binding assay at rat striatal Adenosine A2A receptor vs [3H]-CGS- 21680

Sequence of Adenosine receptor A2a (P30543 whole entry): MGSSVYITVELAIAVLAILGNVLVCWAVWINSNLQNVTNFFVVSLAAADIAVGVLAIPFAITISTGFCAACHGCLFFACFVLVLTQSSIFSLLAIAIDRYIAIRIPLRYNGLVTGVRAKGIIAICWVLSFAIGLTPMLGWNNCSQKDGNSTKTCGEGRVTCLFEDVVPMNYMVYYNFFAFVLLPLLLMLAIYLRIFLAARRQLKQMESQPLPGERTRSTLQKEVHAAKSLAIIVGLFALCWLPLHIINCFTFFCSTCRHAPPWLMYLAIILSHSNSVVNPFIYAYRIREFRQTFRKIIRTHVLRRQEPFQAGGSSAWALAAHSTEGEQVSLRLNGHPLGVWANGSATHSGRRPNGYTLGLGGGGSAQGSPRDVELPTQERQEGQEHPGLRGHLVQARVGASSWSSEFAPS

Ki: > 100 nM
SMILES: CCOC(=O)C1C(C)=NC(c2ccccc2)=C(C(=O)OCc2ccccc2)C1C#Cc1ccccc1 (stereo unspecified) [CAS_393594]
